This is an account of results in patent publication US20180000771A1, “AGENT FOR PREVENTING AND/OR TREATING AMYOTROPHIC LATERAL SCLEROSIS” (KYOTO UNIVERSITY, priority 2015, published 2018).

The subject of assay [1] is motoneuron cells derived from iPS cells of ALS patients having C9orf72 mutation. The assay is described as follows: survival of motoneuron cells induced from ALS patient iPS cells (C9orf72 mutation). It counts as cell-based, human. Particulars: for cell survival rate improvement, C9orf72 mutation / cell survival rate improving effect, significance, C9orf72 mutation: added on day 7, survived motoneuron cells counted on day 14.

Assay [2] relates to motoneuron cells derived from iPS cells having SOD1-L144FVX mutation. The assay is described as follows: survival of motoneuron cells induced from ALS patient iPS cells (SOD1 mutation). Particulars: for cell survival rate improvement, SOD1 mutation / cell survival rate improving effect, significance, SOD1 mutation: added on day 7, survived motoneuron cells counted on day 14; for dose correlation in the protection effect on motoneuron cell having SOD1 mutation: FIG. 2, FIG. 6; for MN index (motoneuron cell survival number ratio as compared to negative control): SOD1-L144FVX motoneuron cells contacted with medicament for 7 days, negative control DMSO; for survival of motor neuron: familial ALS (mSOD1 ALS) motoneuron cells, 0, 0.01, 0.1, 1, 10 μM, n=6, p<0.05, FIG. 7.

Assay [3] deals with motoneuron cells derived from iPS cells of sporadic ALS patients. The assay is described as follows: survival of motoneuron cells induced from sporadic ALS patient iPS cells. It counts as cell-based, human. Particulars: for cell survival rate improvement, sporadic / cell survival rate improving effect, significance, sporadic: added on day 7, survived motoneuron cells counted on day 14.

Assay [4] relates to nerve cell derived from iPS cell having SOD1-L144FVX mutation. The assay is described as follows: neurite length of nerve cells derived from iPS cells. It counts as cell-based, human. To be noted: 1 μM, cultured for 48 hr.
Description: In detail, small clumps (diameter 40-100 μm) of iPS cell colonies were subjected to a filter treatment with Cell Strainer (BD Falcon), and cultured for 10 days in N2B27 medium [DMEM/F12, Neurobasal, N2 supplement, B27 supplement, L-Gln] added with 100 ng/ml human recombinant Noggin (R&D systems) and 1 μM SB431542 (Sigma) in a culture dish coated with poly-L-lysine (Sigma)/Laminin (BD Falcon) (PLL/LM). Then, the colonies were dissociated into small clumps with 200 U/ml collagenase added with CaCl2, and transferred into a culture dish coated with PLL/ECL (Millipore). After 7 days of culture, the cells were dissociated with Accutase (Innovative Cell Technologies), and cultured in a culture dish coated with PLL/ECL for 7 days (24 d). Finally, the cells dissociated with Accutase and selected by a 40 μm cell strainer (BD Falcon) were counted, cultured for 31 days (56d) in N2B27 medium added with 10 ng/ml BDNF, GDNF, and NT-3 (R&D systems) in a culture dish coated with PLL/LM/Fibronectin (Millipore) to give nerve cells from the iPS cells.
The subject of the next assay is c-abl. The assay is described as follows: Western blot of c-abl phosphorylation in nerve cells. The assay is classed as cell-based, human. Particulars: 1 μM, nerve cells having SOD1 mutation. On the procedure: (§1) It is known that phosphorylation of Erk is promoted in nerve cells having mutation SOD1. To examine the mechanism of these candidate medicaments, phosphorylation of Erk was examined by Western blot method. The Western blot method included dissolving cells in RIPA buffer containing 0.1% SDS, 150 mM NaCl, 1% NP-40, 0.5% deoxycholate, 50 mM Tris-HCl (pH 8.0), protease inhibitor (Roche) and phosphatase inhibitor (Roche), centrifugation, measurement of protein concentration, addition of 20 μg amount of protein to each lane, and electrophoresis in 10-20% polyacrylamide gel. After blotting to Immobilon-P membrane (Millipore), the cells were stained with antibodies against Erk, phosphorylated Erk, c-Abl and phosphorylated c-Abl and detected.

The subject of the next assay is Erk. The assay is described as follows: Western blot of Erk phosphorylation in nerve cells. It counts as cell-based, human. Particulars: 1 μM, nerve cells having SOD1 mutation. On the procedure:
as §1

In assay [5] the test system is motoneuron cells derived from iPS cells having SOD1-L144FVX mutation. To be noted: 168 h.

Molecules are shown by their SMILES. Structures can show the parent of a compound that is named as a salt. Where two headings read alike, the source gives them in different places.

Take `Cc1ccc(Nc2nccc(N(C)c3ccc4c(C)n(C)nc4c3)n2)cc1S(N)(=O)=O` [Pazopanib]: in assay [1], the “cell survival rate improvement, C9orf72 mutation” value is reported as “○ (cell survival rate improvement not less than 20%)” and the “cell survival rate improving effect, significance, C9orf72 mutation” value was “○ (significant difference (p < 0.05))”. Further, in assay [2], the “cell survival rate improvement, SOD1 mutation” value is “x (cell survival rate improvement less than 20%)” and the “cell survival rate improving effect, significance, SOD1 mutation” value is “○ (significant difference (p < 0.05))”. For the same molecule, in assay [3], the “cell survival rate improvement, sporadic” value is “x (cell survival rate improvement less than 20%)” and the “cell survival rate improving effect, significance, sporadic” value was “x (no significant difference (p ≧ 0.05))”.

As to `C[C@@H](Oc1cc(-c2cnn(C3CCNCC3)c2)cnc1N)c1c(Cl)ccc(F)c1Cl` [Crizotinib], in assay [1], the “cell survival rate improvement, C9orf72 mutation” value is on record as “x (cell survival rate improvement less than 20%)” and the “cell survival rate improving effect, significance, C9orf72 mutation” value is on record as “○ (significant difference (p < 0.05))”. In assay [2], the “efficacy for ALS having SOD1 mutation (conclusion from Tables 5 and 6)” value is “higher efficacy”; the “dose correlation in the protection effect on motoneuron cell having SOD1 mutation” value (from here on “dose correlation”) was “increase in the effect in a dose-dependent manner”; the “cell survival rate improvement, SOD1 mutation” value is listed as “○ (cell survival rate improvement not less than 20%)”; the “cell survival rate improving effect, significance, SOD1 mutation” value is reported as “○ (significant difference (p < 0.05))”. In assay [3], the “cell survival rate improvement, sporadic” value was “x (cell survival rate improvement less than 20%)” and the “cell survival rate improving effect, significance, sporadic” value was “x (no significant difference (p ≧ 0.05))”.

In the case of `CCN(CC)CCNC(=O)c1c(C)[nH]c(/C=C2\C(=O)Nc3ccc(F)cc32)c1C` [Sunitinib], in assay [1], the “cell survival rate improvement, C9orf72 mutation” value was “○ (cell survival rate improvement not less than 20%)” and the “cell survival rate improving effect, significance, C9orf72 mutation” value is “○ (significant difference (p < 0.05))”. In assay [2], the “cell survival rate improvement, SOD1 mutation” value is reported as “○ (cell survival rate improvement not less than 20%)” and the “cell survival rate improving effect, significance, SOD1 mutation” value was “○ (significant difference (p < 0.05))”. Besides, in assay [3], the “cell survival rate improvement, sporadic” value is on record as “○ (cell survival rate improvement not less than 20%)” and the “cell survival rate improving effect, significance, sporadic” value was “○ (significant difference (p < 0.05))”.

Take `Cn1cnc2cc3c(Nc4cccc(Br)c4)ncnc3cc21` [BPIQ-I]: the “MN index (motoneuron cell survival number ratio as compared to negative control)” value in assay [2] is given as 8.14.

As for `CCN(CC)Cc1cc(Nc2ccnc3cc(Cl)ccc23)ccc1O` [AMODIAQUINE DIHYDROCHLORIDE, AMODIAQUINE], in assay [2], the “MN index (motoneuron cell survival number ratio as compared to negative control)” value came to 8.98.

With `COc1cc2nccc(Oc3ccc(NC(=O)Nc4cc(C)on4)c(Cl)c3)c2cc1OC` [Tivozanib], in assay [1], the “cell survival rate improvement, C9orf72 mutation” value is “x (cell survival rate improvement less than 20%)” and the “cell survival rate improving effect, significance, C9orf72 mutation” value is recorded as “○ (significant difference (p < 0.05))”. In addition, the length of neuritis result in assay [4] is reported as “elongation of neuritis”. The phosphorylation of c-abl result in the assay on c-abl is “decreased”. Further, the “phosphorylation of Erk” value in the assay on Erk was “decreased”. Moreover, in assay [2], the “efficacy for ALS having SOD1 mutation (conclusion from Tables 5 and 6)” value is “higher efficacy”; the “dose correlation” value is reported as “increase in the effect in a dose-dependent manner”; the “cell survival rate improvement, SOD1 mutation” value is “○ (cell survival rate improvement not less than 20%)”; the “cell survival rate improving effect, significance, SOD1 mutation” value was “○ (significant difference (p < 0.05))”. Moreover, in assay [3], the “efficacy for sporadic ALS (conclusion from Tables 5 and 6)” value is “higher efficacy”; the “cell survival rate improvement, sporadic” value is on record as “○ (cell survival rate improvement not less than 20%)”; the “cell survival rate improving effect, significance, sporadic” value is recorded as “○ (significant difference (p < 0.05))”.

Take `CN(C)CCCn1cc(C2=C(c3c[nH]c4ccccc34)C(=O)NC2=O)c2ccccc21` [Bisindolyl-maleimide I, Bisindolylmaleimide I]: the “MN index (motoneuron cell survival number ratio as compared to negative control)” value in assay [5] is listed as 7.96.

Regarding `Cn1cc(C2=C(c3cn(C4CCN(Cc5ccccn5)CC4)c4ccccc34)C(=O)NC2=O)c2ccccc21` [Enzastaurin], in assay [2], the “MN index (motoneuron cell survival number ratio as compared to negative control)” value worked out at 9.84.

For `CCN(CC)C(=O)c1ccc(Nc2nc(OCC3CCCCC3)c3nc[nH]c3n2)cc1` [Cdk2 Inhibitor IV, NU6140], the “MN index (motoneuron cell survival number ratio as compared to negative control)” value in assay [2] turned out to be 7.08.

Consider `Cc1ccc(NC(=O)c2ccc(CN3CCN(C)CC3)cc2)cc1Nc1nccc(-c2cccnc2)n1` [Imatinib], for which the “survival of motor neuron” value in assay [2] is “increased survival of motor neuron”.

On to `C[C@@H](Oc1cc(-c2cnn(C3CCNCC3)c2)cnc1N)c1c(Cl)ccc(F)c1Cl` [Crizotinib (PF- 2341066), Crizotinib], for which, in assay [2], the “MN index (motoneuron cell survival number ratio as compared to negative control)” value is given as 7.60.

Take `CNC(=O)c1ccccc1Sc1ccc2c(/C=C/c3ccccn3)n[nH]c2c1` [Axitinib]: in assay [1], the “efficacy for ALS having C9orf72 mutation (conclusion from Tables 5 and 6)” value was “higher efficacy”; the “cell survival rate improvement, C9orf72 mutation” value is on record as “○ (cell survival rate improvement not less than 20%)”; the “cell survival rate improving effect, significance, C9orf72 mutation” value is “○ (significant difference (p < 0.05))”. In addition, in assay [2], the “dose correlation” value was “increase in the effect in a dose-dependent manner”; the “MN index (motoneuron cell survival number ratio as compared to negative control)” value was determined as 7.35; the “cell survival rate improvement, SOD1 mutation” value is “x (cell survival rate improvement less than 20%)”; the “cell survival rate improving effect, significance, SOD1 mutation” value is “x (no significant difference (p ≧ 0.05))”. In assay [3], the “cell survival rate improvement, sporadic” value is “x (cell survival rate improvement less than 20%)” and the “cell survival rate improving effect, significance, sporadic” value was “x (no significant difference (p ≧ 0.05))”.

With `Cc1nc(N)sc1-c1ccnc(Nc2ccc(N3CCOCC3)cc2)n1` [CYC116], in assay [2], the “MN index (motoneuron cell survival number ratio as compared to negative control)” value is listed as 8.14.

For the molecule `O=C(c1ccc(OCCN2CCCCC2)cc1)c1c(-c2ccc(O)cc2)sc2cc(O)ccc12` [Raloxifene], the “dose correlation” value in assay [2] is “increase in the effect in a dose-dependent manner”.

As to `Cc1ccc(NC(=O)c2ccc(CN3CC[C@H](N(C)C)C3)c(C(F)(F)F)c2)cc1Nc1nccc(-c2cncnc2)n1` [Bafetinib], in assay [2], the “survival of motor neuron” value is on record as “increased survival of motor neuron”.

For `O=C(O)CCC(=O)c1ccc(-c2ccccc2)cc1` [FENBUFEN], in assay [2], the “MN index (motoneuron cell survival number ratio as compared to negative control)” value was determined as 7.22.

As for `CC1=NN(c2ccccc2)C(=O)C1` [Edaravone], the “dose correlation” value in assay [2] was “increase in the effect in a dose-dependent manner”.

In the case of `Oc1ccc(O)cc1` [HYDROQUINONE], the “MN index (motoneuron cell survival number ratio as compared to negative control)” value in assay [2] was 7.96.

In the case of `COc1ccc2c(c1)/C(=C/c1c[nH]cn1)C(=O)N2` [SU9516], in assay [2], the “MN index (motoneuron cell survival number ratio as compared to negative control)” value worked out at 8.39.

Regarding `COc1cc(Nc2c(C#N)cnc3cc(OCCCN4CCN(C)CC4)c(OC)cc23)c(Cl)cc1Cl` [Bosutinib], in assay [1], the “cell survival rate improvement, C9orf72 mutation” value is reported as “○ (cell survival rate improvement not less than 20%)” and the “cell survival rate improving effect, significance, C9orf72 mutation” value was “○ (significant difference (p < 0.05))”. In addition, in assay [2], the “cell survival rate improvement, SOD1 mutation” value was “○ (cell survival rate improvement not less than 20%)” and the “cell survival rate improving effect, significance, SOD1 mutation” value is “○ (significant difference (p < 0.05))”. Moreover, in assay [3], the “cell survival rate improvement, sporadic” value was “○ (cell survival rate improvement not less than 20%)” and the “cell survival rate improving effect, significance, sporadic” value is on record as “○ (significant difference (p < 0.05))”.
